Test results published in US11542492B2 (Celgene CAR LLC, priority 2009, dated 2023).

Biological target: T1, recombinant human cIAP-1 (Homo sapiens, UniProt Q13490)
T1 construct: purchased R&D Systems 818-IA
Assay: Fluorescence polarization competition binding assay, cIAP-1
Conditions: c-IAP-1, 3 h
Method: Homogeneous, Fluorescence Polarization, Competition Binding Assay Protocol for Affinity Assessment of Compound Binding to XIAP, cIAP-1 and ML-IAPβ BIR3 Domains
1× stocks of recombinant human XIAP; BIR3 domain (895-XB), recombinant human cIAP-1 (818-IA) or recombinant human ML-IAPβ (818-IA) from R&D Systems and Fluorescence Polarization (FP) assay tracer (Atto-647 tagged IAP inhibitor probe compound) were prepared in assay buffer consisting of 25 mM Tris-HCL, pH 7.5 (Sigma), 10 mM […] (Sigma), 1 mM DTT (Fluka) and 0.005% TritonX-100 (Pierce). While IAP protein and tracer equilibrated at ambient temp in the dark (30-60 min), 100× stocks of test compound were prepared in 50% DMSO:H2O, serially diluted and spotted (0.5 µL/well) in duplicate wells of a 384-well, flat bottom, polypropylene, black assay plate (Greiner #781209). […] Competition binding between test compounds and assay tracer was initiated by the addition of 50 µL/well of pre-equilibrated IAP protein and assay tracer. Displacement of the assay tracer was measured in a Synergy plate reader from BioTek (Winooski, Vt.) at λex620/λem680 through a 660 nm half-sized dicroich mirror and S/P polarizing filters every 30 min for 3 hr. (See Huang, X., Journal of Biomolecular Screening 8, 2003). The resulting compound dose response data were fit to a one-site binding Ki model in GraphPad Prism from GraphPad Software (San Diego, Calif.).

T1 sequence (Q13490 whole entry): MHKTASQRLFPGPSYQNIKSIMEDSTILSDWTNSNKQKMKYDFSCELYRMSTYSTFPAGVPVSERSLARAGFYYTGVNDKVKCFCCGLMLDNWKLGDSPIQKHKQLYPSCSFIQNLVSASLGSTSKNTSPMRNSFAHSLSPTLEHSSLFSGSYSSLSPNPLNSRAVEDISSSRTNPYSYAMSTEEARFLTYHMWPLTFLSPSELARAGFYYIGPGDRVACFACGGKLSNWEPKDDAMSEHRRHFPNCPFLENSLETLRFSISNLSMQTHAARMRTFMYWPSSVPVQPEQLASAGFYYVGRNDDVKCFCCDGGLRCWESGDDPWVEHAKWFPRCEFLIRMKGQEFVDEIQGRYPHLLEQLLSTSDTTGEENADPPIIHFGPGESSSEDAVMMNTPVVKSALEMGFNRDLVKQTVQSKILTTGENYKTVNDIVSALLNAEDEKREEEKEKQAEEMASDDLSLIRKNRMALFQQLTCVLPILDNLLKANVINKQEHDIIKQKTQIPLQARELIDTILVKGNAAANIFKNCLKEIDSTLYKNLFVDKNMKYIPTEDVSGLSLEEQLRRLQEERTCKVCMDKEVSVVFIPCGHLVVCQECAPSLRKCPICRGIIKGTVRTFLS

Ki [nM]	Compound
1000 to 10000	CN[C@@H](C)C(=O)N[C@H]1CCCC[C@H]2CC[C@@H](C(=O)NCc3cccc(C(=O)OC4C(=O)OCC4(C)C)c3)N2C1=O (some centres unmarked) [VII-14]
100 to 1000	CN[C@@H](C)C(=O)N[C@H]1CCCC[C@H]2CC[C@@H](C(=O)NCc3cccc(C(=O)N4C[C@H]5C[C@@H]4C(=O)O5)c3)N2C1=O [VII-25]
100 to 1000	C=C(C)C(=O)Nc1cccc(CNC(=O)[C@@H]2CC[C@@H]3CCCC[C@H](NC(=O)[C@H](C)NC)C(=O)N32)c1 [VII-11]
100 to 1000	CN[C@@H](C)C(=O)N[C@H]1CCCC[C@H]2CC[C@@H](C(=O)NCc3cccc(C(=O)NC[C@@H]4CCC(=O)O4)c3)N2C1=O [VII-42]
100 to 1000	CN[C@@H](C)C(=O)N[C@H]1CCCC[C@H]2CC[C@@H](C(=O)NCc3cccc(C(=O)N4C[C@@H]5C[C@H]4C(=O)O5)c3)N2C1=O [VII-20, (3S,6S,10aS)-6-((S)-2-(methylamino)propanamido)-5-oxo-N-(3-((1S,4S)-3-oxo-2-oxa-5-azabicyclo[2.2.1]heptane-5-carbonyl)benzyl)decahydropyrrolo[1,2-a]azocine-3-carboxamide]
100 to 1000	CN[C@@H](C)C(=O)N[C@H]1CCCC[C@H]2CC[C@@H](C(=O)NCc3cccc(C(=O)N[C@@H]4CCOC4=O)c3)N2C1=O [VII-27]
100 to 1000	CN[C@@H](C)C(=O)N[C@H]1CCCC[C@H]2CC[C@@H](C(=O)NCc3cccc(C(C(C)=O)C(C)=O)c3)N2C1=O [VII-8]
100 to 1000	CN[C@@H](C)C(=O)N[C@H]1CCCC[C@H]2CC[C@@H](C(=O)NCc3cccc(Nc4c(OC(C)C)c(=O)c4=O)c3)N2C1=O [VII-5]
100 to 1000	CN[C@@H](C)C(=O)N[C@H]1CCCC[C@H]2CC[C@@H](C(=O)NCc3cccc(OC4CCOC4=O)c3)N2C1=O (some centres unmarked) [VII-17]
100 to 1000	CN[C@@H](C)C(=O)N[C@H]1CCCC[C@H]2CC[C@@H](C(=O)NCc3cccc(C(=O)NC[C@H]4CCC(=O)O4)c3)N2C1=O [VII-41]
100 to 1000	CN[C@@H](C)C(=O)N[C@H]1CCCC[C@H]2CC[C@@H](C(=O)NCc3cccc(C(=O)N[C@H]4CCOC4=O)c3)N2C1=O [VII-13, (3S,6S,10aS)-6-((S)-2-(methylamino)propanamido)-5-oxo-N-(3-((S)-2-oxotetrahydrofuran-3-ylcarbamoyl)benzyl)decahydropyrrolo[1,2-a]azocine-3-carboxamide]
100 to 1000	CN[C@@H](C)C(=O)N[C@H]1CCCC[C@H]2CC[C@@H](C(=O)NCc3cccc(NC(=O)[C@@H]4CC(=O)N4)c3)N2C1=O [VII-4]
100 to 1000	C=CC(=O)NCc1cccc(CNC(=O)[C@@H]2CC[C@@H]3CCCC[C@H](NC(=O)[C@H](C)NC)C(=O)N32)c1 [VII-18]
100 to 1000	CN[C@@H](C)C(=O)N[C@H]1CCCC[C@H]2CC[C@@H](C(=O)NCc3cccc(NC(=O)C45CC[C@](C)(C(=O)O4)C5(C)C)c3)N2C1=O [VII-26]
1000 to 10000	CN[C@@H](C)C(=O)N[C@H]1CCCC[C@H]2CC[C@@H](C(=O)NCc3cccc(C(=O)N4CCC5C[C@H]4C(=O)O5)c3)N2C1=O [VII-47]
10 to 100	CN[C@@H](C)C(=O)N[C@H]1CCCC[C@H]2CC[C@@H](C(=O)NCc3cccc(C(=O)C=C(C)C)c3)N2C1=O [VII-19]
100 to 1000	CN[C@@H](C)C(=O)N[C@H]1CCCC[C@H]2CC[C@@H](C(=O)NCc3cccc(NC(=O)C45CC[C@@](C)(C(=O)O4)C5(C)C)c3)N2C1=O [VII-24]
100 to 1000	CN[C@@H](C)C(=O)N[C@H]1CCCC[C@H]2CC[C@@H](C(=O)NCc3cccc(NC(=O)C4CCCC(=O)O4)c3)N2C1=O (some centres unmarked) [VII-46]

Ki [nM]	Compound
100 to 1000	CN[C@@H](C)C(=O)N[C@H]1CCCC[C@H]2CC[C@@H](C(=O)NCc3cccc(NC(=O)C4CCOC4=O)c3)N2C1=O (some centres unmarked) [VII-44]
10 to 100	CN[C@@H](C)C(=O)N[C@H]1CCCC[C@H]2CC[C@@H](C(=O)NCc3cccc(NC(=O)C=C(C)C)c3)N2C1=O [VII-12]
10 to 100	CN[C@@H](C)C(=O)N[C@H]1CCCC[C@H]2CC[C@@H](C(=O)NCc3cccc(NC(=O)CC(C)=O)c3)N2C1=O [VII-6]
1000 to 10000	CN[C@@H](C)C(=O)N[C@H]1CCCC[C@H]2CC[C@@H](C(=O)NCc3cccc(CNC(=O)[C@H]4CCC(=O)O4)c3)N2C1=O [VII-33]
100 to 1000	CN[C@@H](C)C(=O)N[C@H]1CCCC[C@H]2CC[C@@H](C(=O)NCc3cccc(C(=O)N[C@@H]4COC(=O)C4)c3)N2C1=O [VII-22]
100 to 1000	CN[C@@H](C)C(=O)N[C@H]1CCCC[C@H]2CC[C@@H](C(=O)NCc3cccc(NC(=O)CC(=O)C(F)(F)F)c3)N2C1=O [VII-9]
100 to 1000	CN[C@@H](C)C(=O)N[C@H]1CCCC[C@H]2CC[C@@H](C(=O)NCc3cccc(CNC(=O)[C@@H]4CCC(=O)O4)c3)N2C1=O [VII-32]
100 to 1000	CN[C@@H](C)C(=O)N[C@H]1CCCC[C@H]2CC[C@@H](C(=O)NCc3cccc(NC(=O)[C@H]4CCC(=O)N4)c3)N2C1=O [VII-39]
100 to 1000	CN[C@@H](C)C(=O)N[C@H]1CCCC[C@H]2CC[C@@H](C(=O)NCc3cccc(C(=O)N4CCC5CC4C(=O)O5)c3)N2C1=O (some centres unmarked) [VII-48]
> 10000	CC(=O)C(C(C)=O)c1cccc(CNC(=O)[C@@H]2CC[C@@H]3CCCC[C@H](NC(=O)[C@H](C)N(C)C(=O)OC(C)(C)C)C(=O)N32)c1 [VII-7, tert-butyl(S)-1-((3S,6S,10aS)-3-(3-(2,4-dioxopentan-3-yl)benzylcarbamoyl)-5-oxodecahydropyrrolo[1,2-a]azocin-6-ylamino)-1-oxopropan-2-yl(methyl)carbamate]
1000 to 10000	CN[C@@H](C)C(=O)N[C@H]1CCCC[C@H]2CC[C@@H](C(=O)NCc3cccc(NC(=O)[C@@H]4CCC(=O)N4)c3)N2C1=O [VII-38]
100 to 1000	CN[C@@H](C)C(=O)N[C@H]1CCCC[C@H]2CC[C@@H](C(=O)NCc3cccc(C(=O)OC4CCOC4=O)c3)N2C1=O (some centres unmarked) [VII-15]
100 to 1000	CN[C@@H](C)C(=O)N[C@H]1CCCC[C@H]2CC[C@@H](C(=O)NCc3cccc(C(=O)N4CCOC(=O)C4)c3)N2C1=O [VII-31]
100 to 1000	CN[C@@H](C)C(=O)N[C@H]1CCCC[C@H]2CC[C@@H](C(=O)NCc3cccc(NC(=O)/C=C/CN(C)C)c3)N2C1=O [VII-10]
100 to 1000	CN[C@@H](C)C(=O)N[C@H]1CCCC[C@H]2CC[C@@H](C(=O)NCc3cccc(NC(=O)C4(C(C)=O)CC4)c3)N2C1=O [VII-34]
1000 to 10000	CN[C@@H](C)C(=O)N[C@H]1CCCC[C@H]2CC[C@@H](C(=O)NCc3cccc(NC(=O)C4COC(=O)C4)c3)N2C1=O (some centres unmarked) [VII-45]
100 to 1000	CN[C@@H](C)C(=O)N[C@H]1CCCC[C@H]2CC[C@@H](C(=O)NCc3cccc(NC(=O)[C@@H]4CCC(=O)O4)c3)N2C1=O [VII-3]
